Assay results as given in publication PMC3539823 (Journal of medicinal chemistry, 2012).
pIC50: −log10 of the molar value.

Legend:
GLS = target: T1, GLS (Homo sapiens, UniProt O94925); settings: previously reported; cited from earlier work
T1 sequence (O94925 124-669 limits assumed): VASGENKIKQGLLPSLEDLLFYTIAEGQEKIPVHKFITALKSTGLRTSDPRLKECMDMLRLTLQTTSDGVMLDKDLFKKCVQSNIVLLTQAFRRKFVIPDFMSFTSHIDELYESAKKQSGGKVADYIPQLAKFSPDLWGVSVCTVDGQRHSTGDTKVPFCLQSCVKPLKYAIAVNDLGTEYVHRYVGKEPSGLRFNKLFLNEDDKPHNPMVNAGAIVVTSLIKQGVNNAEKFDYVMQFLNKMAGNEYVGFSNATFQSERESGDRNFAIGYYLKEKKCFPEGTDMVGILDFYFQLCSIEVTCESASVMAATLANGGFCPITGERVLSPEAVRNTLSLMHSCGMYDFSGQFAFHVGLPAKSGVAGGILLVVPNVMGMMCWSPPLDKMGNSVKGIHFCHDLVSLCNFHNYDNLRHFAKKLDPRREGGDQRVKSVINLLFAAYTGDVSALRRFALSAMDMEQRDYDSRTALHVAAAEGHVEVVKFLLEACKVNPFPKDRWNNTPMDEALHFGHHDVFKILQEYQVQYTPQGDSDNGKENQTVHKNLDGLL

[1] = mouse liver microsomes, phase I
[2] = system: P493 human lymphoma B cells; experiment: P493 cell proliferation assay; type: cell-based; settings: P493-6, read-out: IC50 (growth of P493 cells)

SMILES: Nc1nnc(CCSCCc2nnc(N)s2)s1 [Compound 5, Bis-[2-(5-Amino-[1,3,4]thiadiazol-2-yl)-ethylsulfide]]
- fold increase in IC50 value from 3 to 5 (GLS): 50 fold

SMILES: Nc1nnc(CCCCc2nnc(NC(=O)Cc3ccccc3)s2)s1 [Compound 11b, N-(5-(4-(5-amino-1,3,4-thiadiazol-2-yl)butyl)-1,3,4-thiadiazol-2-yl)-2-phenylacetamide]
- stability against microsomes in the presence of NADPH [1]: completely stable

SMILES: O=C(CCCCc1nnc(NC(=O)Cc2ccccc2)s1)NCCN1CCCC1 [Compound 29a, 5-(5-(2-phenylacetamido)-1,3,4-thiadiazol-2-yl)-N-(2-(pyrrolidin-1-yl)ethyl)pentanamide]
- pIC50 [2]: ~4.40
- stability against microsomes in the presence of NADPH [1]: completely stable
